Here are results for twelve molecules from patent US6376675B2, “Muscarinic receptor agonists” (The University of Toledo, priority 1999, dated 2002).

One series addresses T1, M1 muscarinic receptors (Homo sapiens, UniProt P11229).
T1 construct: expressed in transfected cells; host or cells: A9 L cells
T1 sequence (P11229 1-460): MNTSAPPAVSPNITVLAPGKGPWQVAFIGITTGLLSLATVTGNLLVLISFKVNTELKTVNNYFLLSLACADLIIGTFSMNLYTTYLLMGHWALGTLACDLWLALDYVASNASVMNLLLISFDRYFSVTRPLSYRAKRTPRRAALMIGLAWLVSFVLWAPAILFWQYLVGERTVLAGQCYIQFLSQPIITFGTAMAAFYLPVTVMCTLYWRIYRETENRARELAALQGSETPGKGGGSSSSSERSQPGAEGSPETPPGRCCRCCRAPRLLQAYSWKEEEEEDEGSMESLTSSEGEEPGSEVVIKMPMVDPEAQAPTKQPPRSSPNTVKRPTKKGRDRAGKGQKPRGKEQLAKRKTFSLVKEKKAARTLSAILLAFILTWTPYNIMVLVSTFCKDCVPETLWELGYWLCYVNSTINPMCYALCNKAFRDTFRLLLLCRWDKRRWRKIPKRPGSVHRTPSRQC
Put plainly: Muscarinic receptor binding at M1 receptors. The following applies: for Ki: Table 3; for affinity for muscarinic receptors: as compared to the parent compound xanomeline. The text has this: (§1) The compounds of Formula III incorporate hydrogen bonding elements as ester isosteres (i.e., alcohols, […], 1,2,5-thiadiazoles) at the end of an alkyl or alkyloxy linking group as shown below. The compounds lack a second tetrahydropyridine moiety.

In series [1] the target is T2, M1 muscarinic receptors expressed in A9 L cells (Homo sapiens, UniProt P11229).
T2 construct: expressed in transfected cells; host or cells: A9 L cells
T2 sequence (P11229 1-460): T1 sequence (P11229 1-460)
In words: Phosphoinositide (PI) metabolism at M1 muscarinic receptors expressed in A9 L cells. The format is cell-based. As to conditions: for EC50 / Phosphoinositide metabolism Smax: A9 L cells, Table 3.
Source text: as §1

Structures are written as SMILES. Where a name gives a salt, the structure may show the parent alone.

`CC(=O)OCCCCCCCCCCCCOc1nsnc1C1=CCCN(C)C1` [CDD-0299-A, 12-[3-(1-Methyl-1,2,5,6-tetrahydropyrid-3-yl)-1,2,5-thiadiazol-4-yloxy]-1-dodecyl acetate hydrochloride] had an inhibition constant (Ki) at M1 muscarinic receptors of 16 ± 13 nM. Also, in series [1], the EC50 is 3400 nM and the “Phosphoinositide metabolism Smax” value was 280 ± 17%.
In the case of `CN1CCC=C(c2nsnc2OCCOCCOCCOCCOc2nsnc2C2=CCCN(C)C2)C1` [(CH2CH2)4O3, 2,2′-bis-{[3-(1-methyl-1,2,5,6-tetrahydropyrid-3-yl)-1,2,5-thiadiazol-4-yloxy]ethyloxy}-diethyl ether], the “affinity for muscarinic receptors” value on M1 muscarinic receptors was “very high affinity”. The Smax in series [1] (PI metabolism, full dose-response curves, Table 2) was determined as 250 ± 36%.
Turning to `CN1CCC=C(c2nsnc2OCCCCCCCCCCCCO)C1` (as salt: hydrochloride) [CDD-0297-A, 12-[3-(1-Methyl-1,2,5,6-tetrahydropyrid-3-yl)-1,2,5-thiadiazol-4-yloxy]-1-dodecanolhydrochloride], the melting point was 97 to 98 °C.
The molecule `CN1CCC=C(c2nsnc2OCCOCCOCCOCCO)C1` [CDD-0300-A, Tetra(ethylene glycol) mono[3-(1-methyl-1,2,5,6-tetrahydropyrid-3-yl)-1,2,5-thiadiazol-4-yl] ether hydrochloride] had an inhibitory constant (Ki) at M1 muscarinic receptors of 150 ± 42 nM. Besides, in series [1], the EC50 is 710 nM and the “Phosphoinositide metabolism Smax” value stood at 240 ± 64%.
On the same counts, the results for `CCOCCOCCOCCOCCOc1nsnc1C1=CCCN(C)C1` [CDD-0301-A, Tetra(ethylene glycol) ethyl [3-1-methyl-1,2,5,6-tetrahydropyrid-3-yl)-1,2,5-thiadiazol-4-yl] ether hydrochloride] are 570 ± 220 nM, 29000 nM and 420 ± 220%.
`CC(=O)OCCOCCOCCOCCOc1nsnc1C1=CCCN(C)C1` [CDD-0303-A, Tetra(ethylene glycol) [3-(1-methyl-1,2,5,6-tetrahydropyrid-3-yl)-1,2,5-thiadiazol-4-yl] ether acetate hydrochloride] had a Ki on M1 muscarinic receptors of 280 ± 130 nM.
`CC(=O)OCCOCCOCCOCCOc1nsnc1C1=CCCN(C)C1` (as salt: hydrochloride) [CDD-0303-A, Tetra(ethylene glycol) [3-(1-methyl-1,2,5,6-tetrahydropyrid-3-yl)-1,2,5-thiadiazol-4-yl] ether acetate hydrochloride] yielded a melting point of 55 to 55.5 °C.
`COc1nsnc1OCCOCCOCCOCCOc1nsnc1C1=CCCN(C)C1` [CDD-0304-A, Tetra(ethyleneglycol)(4-methoxy-1,2,5-thiadiazol-3-yl)[3-(1-methyl-1,2,5,6-tetrahydropyrid-3-yl)-1,2,5-thiazdiazol-4-yl] ether hydrochloride] displayed an inhibitory constant (Ki) at M1 muscarinic receptors of 38 ± 23 nM. In series [1], the EC50 is 64 nM and the “Phosphoinositide metabolism Smax” value is 600 ± 56%.
In turn, `CC(=O)OCCCCCCCCCCCCOc1nsnc1C1=CCCN(C)C1` (as salt: hydrochloride) [CDD-0299-A, 12-[3-(1-Methyl-1,2,5,6-tetrahydropyrid-3-yl)-1,2,5-thiadiazol-4-yloxy]-1-dodecyl acetate hydrochloride] gave a melting point of 85 to 86 °C.
`CN1CCC=C(c2nsnc2OCCCCCCCCCCCCO)C1` [CDD-0297-A, 12-[3-(1-Methyl-1,2,5,6-tetrahydropyrid-3-yl)-1,2,5-thiadiazol-4-yloxy]-1-dodecanolhydrochloride] came in with an inhibitory constant (Ki) on M1 muscarinic receptors of 16 ± 3.1 nM. Besides, in series [1], the 50% effective concentration (EC50) is 2600 nM and the “Phosphoinositide metabolism Smax” value amounted to 250 ± 28%.
In turn, `CCOCCOCCOCCOCCOc1nsnc1C1=CCCN(C)C1` (as salt: hydrochloride) [CDD-0301-A, Tetra(ethylene glycol) ethyl [3-1-methyl-1,2,5,6-tetrahydropyrid-3-yl)-1,2,5-thiadiazol-4-yl] ether hydrochloride] registered a melting point of 64.5 to 66 °C.
For the molecule `CN1CCC=C(c2nsnc2OCCCCCCCCCCCCOc2nsnc2C2=CCCN(C)C2)C1` [(CH2)12, 1,12-bis-[3-(1-methyl-1,2,5,6-tetrahydropyrid-3-yl)-1,2,5-thiadiazol-4-yloxy]-dodecane], the “affinity for muscarinic receptors” value at M1 muscarinic receptors is “very high affinity”.
